Reference: patent US8415469B2, “Compounds and methods for kinase modulation, and indications therefor” (Plexxikon Inc., priority 2005, dated 2013)
pIC50: −log10 of the molar value.

Legend:
Assay type in all cases: biochemical
Abl = biological target: T1, Abl (Homo sapiens, UniProt P00519); assay: AlphaScreen kinase assay, Abl; details: read-out: activity toward kinase Abl, IC50
T1 construct: P1121. pET-SPEC BI-PTP Abl G227-V515-X; His6 (N); made in house; host or cells: E. coli (PTP1B co-expressed)
T1 sequence (P00519 with tags, fused parts or gaps): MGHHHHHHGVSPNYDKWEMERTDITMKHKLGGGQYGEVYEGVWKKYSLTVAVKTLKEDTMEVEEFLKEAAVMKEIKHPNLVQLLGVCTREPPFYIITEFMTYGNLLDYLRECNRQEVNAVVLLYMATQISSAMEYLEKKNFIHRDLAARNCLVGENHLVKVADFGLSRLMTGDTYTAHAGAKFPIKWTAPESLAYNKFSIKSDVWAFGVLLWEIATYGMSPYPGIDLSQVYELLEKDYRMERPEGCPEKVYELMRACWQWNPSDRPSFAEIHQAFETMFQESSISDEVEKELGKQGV
How it was run: (§1)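 Inhibition reads as diminished acceptor emission, since unphosphorylated peptide fails to bridge antibody acceptor beads and streptavidin donor beads. Titration: eight points, 1:3 steps, stocks at 20 mM in DMSO.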

B-Raf = biological target: T2, B-Raf (Homo sapiens, UniProt P15056); assay: AlphaScreen kinase assay, B-Raf; details: read-out: IC50, activity toward kinase B-Raf
T2 construct: purchased Upstate Biotechnology
Description: (§2) AlphaScreen assays were done using compounds dissolved in DMSO to a concentration of 20 mM. The compounds were diluted accordingly to the desired final concentrations in each sample well, using 1:3 serial dilution for a total of 8 concentration points. Plates were prepared such that each kinase reaction is 20 μl in 1× kinase buffer, 5% DMSO and 10 μM ATP. After incubation of the kinase reaction for 1 hour at room temperature, 5 μl of donor beads in stop buffer (50 mM EDTA in 1× kinase buffer) was added, the sample was mixed and incubated for 20 minutes at room temperature before adding 5 μl of acceptor beads in stop buffer. The samples were incubated for 60 minutes at room temperature and the signal per well was read on AlphaQuest reader.

B-Raf V600E = biological target: T3, B-Raf V600E (Homo sapiens, UniProt P15056, V600E); assay: AlphaScreen kinase assay, B-Raf V600E; details: read-out: IC50, activity toward kinase B-Raf V600E
T3 construct: P4254. pFastBacBD-CDC37 BRAF D437-K722-X, V600E; His6 with pFastBac HT leader (TEV site) (N); made in house; host or cells: Sf9 (baculovirus; chaperone CDC37 co-expressed)

Btk = biological target: T4, Btk (Homo sapiens, UniProt Q06187); assay: Z'-Lyte FRET kinase assay (Invitrogen), Btk; details: read-out: IC50, activity toward kinase Btk
T4 construct: purchased Invitrogen (assay run by Invitrogen)
Description: For example, direct radiometric, indirect FRET or AlphaScreen assays may be used to assess the level of phosphorylation of a substrate in the presence of test compounds in order to determine the inhibitory affect of the compound on the kinase. […] For these assays, compounds of the invention were screened by Invitrogen using Z′-Lyte™ kinase assay.
Briefly, the Invitrogen kinase assay involves use of a specific peptide substrate optimized for each kinase, containing a fluorophore at each end that make up the FRET pair. The peptide sensitivity to proteolytic cleavage depends on phosphorylation of the peptide. Non-phosphorylated peptide is cleaved by a protease while peptide phosphorylated by the kinase is not cleaved. Cleavage of the peptide disrupts the FRET between the donor (coumarin) and acceptor (fluorescein) fluorophores, resulting in an increase in the ratio of donor emission to acceptor emission. The emission ratio of coumarin to fluorescein is used to assess the reaction progress. […] Thus, the assay involves a kinase reaction in the presence of varying concentrations of a given compound, a development reaction with site specific protease, and detection of the fluorescent emission ratio of coumarin and fluorscein. […] Reaction conditions for each kinase are determined to provide optimal reaction times, incubation temperature, kinase and ATP concentrations. Test samples are made up in 1× kinase buffer (50 mM HEPES pH 7.5, 50 mM MgCl2, 5 mM EGTA, 0.05% BRIJ-35) and compound at desired concentration prepared in DMSO such that the final DMSO is 1%. […] All kinase except for MAP2K1 were at 10 μM ATP in the kinase reaction, while MAP2K1 was at 100 μM. Samples are mixed and the kinase reaction is incubated 1 hour at room temperature, after which 5 μl of development solution is added and mixed. After incubation for another 1 hour at room temperature, 5 μl of stop reagent is added to each sample and mixed. The fluorescence signals are measured to determine the emission ratio.

Fak = biological target: T5, Fak (Homo sapiens, UniProt Q05397); assay: AlphaScreen kinase assay, Fak; details: read-out: IC50, activity toward kinase Fak
T5 construct: P1358.pFastBacHtb FAK S411-Q686-X; His6 with pFastBacHTb leader (TEV site) (N); made in house; host or cells: Sf9 (baculovirus)

FGFR1 = biological target: T6, FGFR1 (Homo sapiens, UniProt P11362, C488A/C584S); assay: AlphaScreen kinase assay, FGFR1; details: read-out: IC50, activity toward kinase FGFR
T6 construct: P1351.pET N6 BI-PTP FGFR A458-E765-X C488A, C584S; made in house; host or cells: E. coli (PTP1B co-expressed)

Flt1 = biological target: T7, Flt1 (Homo sapiens, UniProt P17948); assay: AlphaScreen kinase assay, Flt1; details: read-out: IC50, activity toward kinase Flt1
T7 construct: P1826.pETN6 BI-PTP FLT1 M799-D1165-X WT; His6 (N); made in house; host or cells: E. coli (PTP1B co-expressed)
T7 sequence (P17948 with tags, fused parts or gaps): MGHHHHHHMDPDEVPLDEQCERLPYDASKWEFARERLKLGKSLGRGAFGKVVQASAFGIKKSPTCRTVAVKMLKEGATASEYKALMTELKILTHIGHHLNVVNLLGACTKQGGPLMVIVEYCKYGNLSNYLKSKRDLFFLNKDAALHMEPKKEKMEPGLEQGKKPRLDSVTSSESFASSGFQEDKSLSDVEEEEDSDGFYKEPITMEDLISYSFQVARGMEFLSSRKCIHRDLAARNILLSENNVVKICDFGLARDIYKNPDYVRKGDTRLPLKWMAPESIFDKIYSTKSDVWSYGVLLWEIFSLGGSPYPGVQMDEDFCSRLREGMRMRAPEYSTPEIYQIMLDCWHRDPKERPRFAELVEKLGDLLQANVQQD

Fms = biological target: T8, Fms (Homo sapiens, UniProt P07333); assay: AlphaScreen kinase assay, Fms; details: read-out: IC50, activity toward kinase Fms
T8 construct: purchased Upstate Biotechnology

Jnk1 = biological target: T9, Jnk1 (Homo sapiens, UniProt P45983); assay: AlphaScreen kinase assay, Jnk1; details: read-out: IC50, activity toward kinase Jnk1
T9 construct: purchased Upstate Biotechnology

Jnk2 = biological target: T10, Jnk2 (Homo sapiens, UniProt P45984); assay: AlphaScreen kinase assay, Jnk2; details: read-out: IC50, activity toward kinase Jnk2
T10 construct: purchased Roche Protein Expression Group (Indianapolis, IN)
How it was run: as §1

Jnk3 = biological target: T11, Jnk3 (Homo sapiens, UniProt P53779); assay: AlphaScreen kinase assay, Jnk3; details: read-out: IC50, activity toward kinase Jnk3
T11 construct: purchased Upstate Biotechnology

Kdr = biological target: T12, Kdr (Homo sapiens, UniProt P35968); assay: Z'-Lyte FRET kinase assay (Invitrogen), Kdr; details: read-out: IC50, activity toward kinase Kdr
T12 construct: purchased Invitrogen (assay run by Invitrogen)

Kit = biological target: T13, Kit (Homo sapiens, UniProt P10721); assay: AlphaScreen kinase assay, Kit; details: read-out: IC50, activity toward kinase Kit
T13 construct: P1332.N6 BI PTP KIT M552-K948-X COD; His6 (N); made in house; host or cells: E. coli (PTP1B co-expressed)

Met = biological target: T14, Met (Homo sapiens, UniProt P08581); assay: AlphaScreen kinase assay, Met; details: read-out: IC50, activity toward kinase Met
T14 construct: P1818.pETN6 BI-PTP MET G1056-G1364-X WT; His6 (N); made in house; host or cells: E. coli (PTP1B co-expressed)
How it was run: as §1

Ret = biological target: T15, Ret (Homo sapiens, UniProt P07949); assay: AlphaScreen kinase assay, Ret; details: read-out: IC50, activity toward kinase Ret
T15 construct: P1378.pET-SF BI-PTP RET H661-R1012 HIS; made in house
T15 sequence (P07949 with tags, fused parts or gaps): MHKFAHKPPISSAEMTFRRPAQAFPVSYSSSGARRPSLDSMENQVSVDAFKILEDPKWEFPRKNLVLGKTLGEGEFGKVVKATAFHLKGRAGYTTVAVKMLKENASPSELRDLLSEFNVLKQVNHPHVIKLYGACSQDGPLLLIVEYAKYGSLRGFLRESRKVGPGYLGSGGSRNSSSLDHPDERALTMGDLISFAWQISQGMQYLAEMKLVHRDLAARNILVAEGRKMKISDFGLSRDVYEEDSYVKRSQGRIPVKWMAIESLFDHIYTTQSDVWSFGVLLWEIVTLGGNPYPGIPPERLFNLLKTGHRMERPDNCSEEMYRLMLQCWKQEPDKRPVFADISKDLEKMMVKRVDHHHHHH
Description: as §2

Stk6 = biological target: T16, Stk6 (Homo sapiens, UniProt O14965); assay: Z'-Lyte FRET kinase assay (Invitrogen), Stk6; details: read-out: IC50, activity toward kinase Stk6
T16 construct: purchased Invitrogen (Carlsbad, Calif.), screening service
T16 sequence (O14965 1-403): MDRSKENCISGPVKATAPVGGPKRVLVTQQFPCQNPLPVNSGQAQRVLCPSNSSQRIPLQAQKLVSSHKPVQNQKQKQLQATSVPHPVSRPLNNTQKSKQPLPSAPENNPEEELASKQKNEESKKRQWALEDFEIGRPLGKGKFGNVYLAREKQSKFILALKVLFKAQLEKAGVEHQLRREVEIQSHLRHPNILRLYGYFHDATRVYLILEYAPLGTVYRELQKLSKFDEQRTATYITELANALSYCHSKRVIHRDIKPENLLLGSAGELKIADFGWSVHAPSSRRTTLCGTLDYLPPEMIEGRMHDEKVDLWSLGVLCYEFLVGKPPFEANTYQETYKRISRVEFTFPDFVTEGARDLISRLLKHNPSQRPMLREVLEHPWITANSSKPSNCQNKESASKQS

Syk = Syk (Homo sapiens, UniProt P43405); assay: AlphaScreen kinase assay, Syk; details: read-out: IC50, activity toward kinase Syk
Description: AlphaScreen assay was used to screen additional kinases. The assay is similarly dependent on the phosphorylation of a peptide substrate. In this assay, an antibody that recognizes phosphorylated substrate is bound to an acceptor bead. The peptide substrate is attached to biotin, which binds to a donor head that contains streptavidin. Thus phosphorylated substrate is bound by antibody and streptavidin, bringing the donor and acceptor heads into close proximity when kinase is not inhibited. The donor produces singlet oxygen which results in emission from the acceptor when they are in close proximity. Conversely, when kinase is inhibited, the donor and acceptor beads are not associated and the emission from the acceptor is reduced.
AlphaScreen assays were done using compounds dissolved in DMSO to a concentration of 20 mM. The compounds were diluted accordingly to the desired final concentrations in each sample well, using 1:3 serial dilution for a total of 8 concentration points.

Flt4 = biological target: T17, Flt4 (Homo sapiens, UniProt P35916); assay: AlphaScreen kinase assay, Flt4; details: read-out: IC50, activity toward kinase Flt4
T17 construct: purchased ProQinase GmbH (Freiburg, Germany)
How it was run: as §1

Src = biological target: T18, Src (Homo sapiens, UniProt P12931); assay: AlphaScreen kinase assay, Src; details: read-out: IC50, activity toward kinase Src
T18 construct: P1144. pET-N6 BI-PTP SRC V86-L536-X; made in house

MAPKAPK2 = biological target: T19, MAPKAPK2 (Homo sapiens, UniProt P49137); assay: Z'-Lyte FRET kinase assay (Invitrogen), MAPKAPK2; details: read-out: IC50, activity toward kinase MAPKAPK2
T19 construct: purchased Invitrogen (assay run by Invitrogen)
Description: The effect of potential modulators of kinase activity can be measured in a variety of different assays known in the art. For example, direct radiometric, indirect FRET or AlphaScreen assays may be used to assess the level of phosphorylation of a substrate in the presence of test compounds in order to determine the inhibitory affect of the compound on the kinase. Invitrogen (Carlsbad, Calif.) uses a FRET based assay for Btk, EGFR, EphB2, Flt3, lrak4, Kdr, MAP2K1, MAPKAPK2, PDGFRB, PKC theta, Stk6 and Yes. For these assays, compounds of the invention were screened by Invitrogen using Z′-Lyte™ kinase assay.
Briefly, the Invitrogen kinase assay involves use of a specific peptide substrate optimized for each kinase, containing a fluorophore at each end that make up the FRET pair. The peptide sensitivity to proteolytic cleavage depends on phosphorylation of the peptide. Non-phosphorylated peptide is cleaved by a protease while peptide phosphorylated by the kinase is not cleaved. Cleavage of the peptide disrupts the FRET between the donor (coumarin) and acceptor (fluorescein) fluorophores, resulting in an increase in the ratio of donor emission to acceptor emission. The emission ratio of coumarin to fluorescein is used to assess the reaction progress. The extent of phosphorylation is determined from the emission ratio, which is low when the kinase is active (phosphorylated peptide is not cleaved, FRET pair connected) or higher for inhibited kinase (non-phosphorylated peptide is cleaved, FRET pair separated). Thus, the assay involves a kinase reaction in the presence of varying concentrations of a given compound, a development reaction with site specific protease, and detection of the fluorescent emission ratio of coumarin and fluorscein. […] Reaction conditions for each kinase are determined to provide optimal reaction times, incubation temperature, kinase and ATP concentrations. Test samples are made up in 1× kinase buffer (50 mM HEPES pH 7.5, 50 mM MgCl2, 5 mM EGTA, 0.05% BRIJ-35) and compound at desired concentration prepared in DMSO such that the final DMSO is 1%. […] Typically, assay plates are prepared to 10 μl final volume per sample, adding 2.5 μl of compound at 4× the desired concentration in 4% DMSO (serial dilution of compound provides concentration curve), 5 μl of the desired kinase mixed with Z′-LYTE™ peptide substrate (2× in 2× kinase buffer, final peptide at 2 μM), and 2.5 μl of 4×ATP solution. All kinase except for MAP2K1 were at 10 μM ATP in the kinase reaction, while MAP2K1 was at 100 μM. Samples are mixed and the kinase reaction is incubated 1 hour at room temperature, after which 5 μl of development solution is added and mixed. After incubation for another 1 hour at room temperature, 5 μl of stop reagent is added to each sample and mixed. The fluorescence signals are measured to determine the emission ratio.

Measured: pIC50

T6 sequence (P11362 458-765 C488A/C584S): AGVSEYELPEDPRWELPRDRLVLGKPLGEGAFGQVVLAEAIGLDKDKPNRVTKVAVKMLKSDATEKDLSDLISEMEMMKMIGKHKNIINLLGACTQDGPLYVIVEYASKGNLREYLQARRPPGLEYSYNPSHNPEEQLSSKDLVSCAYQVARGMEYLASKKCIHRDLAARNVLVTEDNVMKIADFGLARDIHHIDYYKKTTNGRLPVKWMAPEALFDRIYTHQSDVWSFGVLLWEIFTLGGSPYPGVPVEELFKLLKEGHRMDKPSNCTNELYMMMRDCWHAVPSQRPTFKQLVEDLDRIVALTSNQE
T2 sequence (P15056 whole entry): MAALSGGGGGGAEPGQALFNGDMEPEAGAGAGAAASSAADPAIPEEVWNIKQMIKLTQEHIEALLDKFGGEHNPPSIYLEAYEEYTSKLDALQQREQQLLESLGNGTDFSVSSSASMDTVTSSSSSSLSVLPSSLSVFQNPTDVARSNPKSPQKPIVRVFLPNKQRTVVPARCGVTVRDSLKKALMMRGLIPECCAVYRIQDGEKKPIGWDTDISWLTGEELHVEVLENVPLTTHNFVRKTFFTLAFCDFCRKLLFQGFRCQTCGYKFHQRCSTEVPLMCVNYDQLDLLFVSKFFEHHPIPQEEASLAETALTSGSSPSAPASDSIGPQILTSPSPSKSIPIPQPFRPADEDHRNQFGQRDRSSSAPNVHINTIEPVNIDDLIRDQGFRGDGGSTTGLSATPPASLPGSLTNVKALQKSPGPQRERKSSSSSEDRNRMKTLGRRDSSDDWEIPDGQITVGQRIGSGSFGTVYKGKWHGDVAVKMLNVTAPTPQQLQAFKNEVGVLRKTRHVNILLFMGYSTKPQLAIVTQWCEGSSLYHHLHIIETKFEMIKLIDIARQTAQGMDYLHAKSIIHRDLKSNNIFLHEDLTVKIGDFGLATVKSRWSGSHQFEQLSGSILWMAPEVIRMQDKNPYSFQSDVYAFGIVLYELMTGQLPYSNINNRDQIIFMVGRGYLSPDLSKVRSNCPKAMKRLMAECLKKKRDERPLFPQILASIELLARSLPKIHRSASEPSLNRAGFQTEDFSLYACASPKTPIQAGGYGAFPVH
T9 sequence (P45983 whole entry): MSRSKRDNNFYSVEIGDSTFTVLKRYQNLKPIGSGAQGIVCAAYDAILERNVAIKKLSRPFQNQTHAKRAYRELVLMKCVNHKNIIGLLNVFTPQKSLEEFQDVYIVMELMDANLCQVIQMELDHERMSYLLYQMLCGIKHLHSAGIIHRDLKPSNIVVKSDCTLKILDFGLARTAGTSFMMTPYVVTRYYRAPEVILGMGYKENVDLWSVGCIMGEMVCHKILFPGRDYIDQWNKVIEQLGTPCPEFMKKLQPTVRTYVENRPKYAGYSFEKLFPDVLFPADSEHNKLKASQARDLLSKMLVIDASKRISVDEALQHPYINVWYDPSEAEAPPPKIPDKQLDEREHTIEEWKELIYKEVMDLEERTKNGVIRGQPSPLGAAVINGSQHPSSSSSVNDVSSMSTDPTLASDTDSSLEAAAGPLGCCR
T11 sequence (P53779 whole entry): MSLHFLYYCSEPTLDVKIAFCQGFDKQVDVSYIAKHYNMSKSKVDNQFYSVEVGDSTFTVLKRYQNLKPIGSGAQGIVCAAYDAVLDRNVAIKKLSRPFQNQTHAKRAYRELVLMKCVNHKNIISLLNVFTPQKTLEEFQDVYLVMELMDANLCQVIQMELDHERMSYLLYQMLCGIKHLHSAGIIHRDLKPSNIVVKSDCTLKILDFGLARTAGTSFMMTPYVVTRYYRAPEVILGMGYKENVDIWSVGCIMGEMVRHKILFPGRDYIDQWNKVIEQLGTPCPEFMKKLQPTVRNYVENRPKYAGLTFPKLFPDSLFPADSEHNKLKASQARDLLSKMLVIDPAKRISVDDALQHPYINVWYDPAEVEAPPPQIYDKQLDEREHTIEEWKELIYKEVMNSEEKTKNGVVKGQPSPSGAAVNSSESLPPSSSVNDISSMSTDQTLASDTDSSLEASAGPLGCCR
T13 sequence (P10721 with tags, fused parts or gaps): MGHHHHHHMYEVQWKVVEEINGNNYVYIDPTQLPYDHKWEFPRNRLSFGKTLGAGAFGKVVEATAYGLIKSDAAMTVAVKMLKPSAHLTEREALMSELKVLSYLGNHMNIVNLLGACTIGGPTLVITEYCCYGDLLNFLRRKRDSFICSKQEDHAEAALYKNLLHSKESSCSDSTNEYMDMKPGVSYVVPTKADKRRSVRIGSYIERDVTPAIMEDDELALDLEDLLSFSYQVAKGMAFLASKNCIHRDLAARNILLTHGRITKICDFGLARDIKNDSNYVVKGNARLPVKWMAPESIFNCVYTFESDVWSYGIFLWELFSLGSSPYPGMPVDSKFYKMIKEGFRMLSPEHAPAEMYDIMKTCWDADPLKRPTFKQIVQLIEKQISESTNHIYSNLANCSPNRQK
T12 sequence (P35968 20-1356): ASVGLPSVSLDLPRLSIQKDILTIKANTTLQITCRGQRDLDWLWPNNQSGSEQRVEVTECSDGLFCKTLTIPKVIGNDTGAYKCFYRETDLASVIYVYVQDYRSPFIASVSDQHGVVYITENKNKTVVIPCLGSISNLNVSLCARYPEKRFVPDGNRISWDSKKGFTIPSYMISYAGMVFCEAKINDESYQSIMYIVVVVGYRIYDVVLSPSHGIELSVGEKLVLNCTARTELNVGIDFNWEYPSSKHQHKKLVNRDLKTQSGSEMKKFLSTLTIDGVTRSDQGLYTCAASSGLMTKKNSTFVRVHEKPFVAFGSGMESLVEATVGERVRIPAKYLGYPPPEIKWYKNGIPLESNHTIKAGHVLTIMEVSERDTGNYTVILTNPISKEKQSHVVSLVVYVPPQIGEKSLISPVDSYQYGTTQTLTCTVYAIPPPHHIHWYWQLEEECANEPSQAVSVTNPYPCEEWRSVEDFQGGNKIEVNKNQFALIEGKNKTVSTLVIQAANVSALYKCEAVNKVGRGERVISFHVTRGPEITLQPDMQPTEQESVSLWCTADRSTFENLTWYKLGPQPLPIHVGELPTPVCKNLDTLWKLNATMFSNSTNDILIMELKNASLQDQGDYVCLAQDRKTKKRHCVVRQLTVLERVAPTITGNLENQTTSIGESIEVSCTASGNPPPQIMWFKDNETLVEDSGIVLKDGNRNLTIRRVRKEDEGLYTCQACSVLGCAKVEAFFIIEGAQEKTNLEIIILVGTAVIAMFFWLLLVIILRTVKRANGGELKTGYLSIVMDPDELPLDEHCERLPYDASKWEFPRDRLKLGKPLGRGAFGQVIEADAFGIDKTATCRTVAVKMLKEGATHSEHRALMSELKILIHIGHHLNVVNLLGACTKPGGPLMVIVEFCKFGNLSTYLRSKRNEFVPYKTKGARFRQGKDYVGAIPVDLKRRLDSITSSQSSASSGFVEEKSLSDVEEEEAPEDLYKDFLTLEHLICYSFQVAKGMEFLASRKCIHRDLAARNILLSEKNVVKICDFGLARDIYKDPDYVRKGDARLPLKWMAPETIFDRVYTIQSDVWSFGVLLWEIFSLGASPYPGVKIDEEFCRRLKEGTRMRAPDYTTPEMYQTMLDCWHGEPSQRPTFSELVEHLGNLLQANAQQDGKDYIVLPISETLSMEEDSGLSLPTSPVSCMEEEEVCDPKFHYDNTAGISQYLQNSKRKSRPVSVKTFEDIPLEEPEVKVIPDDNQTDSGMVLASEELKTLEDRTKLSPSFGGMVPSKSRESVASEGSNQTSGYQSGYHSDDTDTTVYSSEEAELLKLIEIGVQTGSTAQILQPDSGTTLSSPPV
T10 sequence (P45984 whole entry): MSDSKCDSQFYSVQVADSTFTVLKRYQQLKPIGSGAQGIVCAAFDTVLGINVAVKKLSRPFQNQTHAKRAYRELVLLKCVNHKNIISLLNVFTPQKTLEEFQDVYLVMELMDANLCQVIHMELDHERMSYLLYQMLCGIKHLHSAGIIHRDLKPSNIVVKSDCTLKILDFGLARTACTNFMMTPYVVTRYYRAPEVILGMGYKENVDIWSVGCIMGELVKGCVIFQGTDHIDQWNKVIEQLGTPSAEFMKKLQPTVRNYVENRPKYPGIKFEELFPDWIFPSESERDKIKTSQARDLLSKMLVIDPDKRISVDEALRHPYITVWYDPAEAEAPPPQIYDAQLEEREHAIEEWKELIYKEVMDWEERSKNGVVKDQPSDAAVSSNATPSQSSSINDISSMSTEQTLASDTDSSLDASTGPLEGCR
T3 sequence (P15056 with tags, fused parts or gaps V600E): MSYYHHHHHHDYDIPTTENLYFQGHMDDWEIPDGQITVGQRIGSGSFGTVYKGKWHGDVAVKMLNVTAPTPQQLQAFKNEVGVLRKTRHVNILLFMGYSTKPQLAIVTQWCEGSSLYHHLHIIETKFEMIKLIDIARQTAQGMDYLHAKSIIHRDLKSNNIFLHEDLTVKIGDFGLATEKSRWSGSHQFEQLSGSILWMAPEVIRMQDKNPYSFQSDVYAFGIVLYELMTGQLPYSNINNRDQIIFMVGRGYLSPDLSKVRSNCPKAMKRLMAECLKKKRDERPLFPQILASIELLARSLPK
T19 sequence (P49137 whole entry): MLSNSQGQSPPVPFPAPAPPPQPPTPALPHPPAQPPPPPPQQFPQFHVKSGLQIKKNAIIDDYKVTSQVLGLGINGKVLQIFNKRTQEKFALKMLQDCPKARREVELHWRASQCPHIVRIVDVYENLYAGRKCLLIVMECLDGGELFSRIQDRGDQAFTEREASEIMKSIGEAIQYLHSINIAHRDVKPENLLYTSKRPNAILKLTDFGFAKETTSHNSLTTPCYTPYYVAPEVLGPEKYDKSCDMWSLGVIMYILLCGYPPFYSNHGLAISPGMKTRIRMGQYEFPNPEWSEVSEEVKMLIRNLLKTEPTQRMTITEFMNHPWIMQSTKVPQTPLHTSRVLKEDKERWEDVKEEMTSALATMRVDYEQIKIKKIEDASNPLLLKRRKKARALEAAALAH

COc1cccc(C(=O)c2c[nH]c3ncc(-c4cccc(/C=C/C(=O)O)c4)cc23)c1 [Compound P-0054]
not listed: Flt4 | Src | MAPKAPK2
≥ 5.00: all other assays above

Cc1ccccc1C(=O)c1c[nH]c2ncc(-c3cccc(N)c3)cc12 [Compound P-0599]
not listed: Btk | Fak | Flt1 | Fms | Kdr | Met | Stk6 | MAPKAPK2
≥ 5.00: all other assays above

COc1cccc(C(=O)c2c[nH]c3ncc(-c4ccc[nH]4)cc23)c1 [Compound P-0151]
≥ 5.00: MAPKAPK2

Nc1ccc(Sc2c[nH]c3nccc(-c4cccc(CO)c4)c23)cc1 [Compound P-0077]
≥ 5.00: Kdr | MAPKAPK2 | Stk6

O=C(c1cccc(O)c1)c1c[nH]c2ncc(-c3ccsc3)cc12 [Compound P-0448]
not listed: Btk | Fak | Fms | Met | Stk6 | MAPKAPK2
≥ 5.00: all other assays above

O=C(O)/C=C/c1cccc(-c2cnc3[nH]cc(C(=O)c4cccc(Cl)c4Cl)c3c2)c1 [Compound P-0089]
≥ 5.00: B-Raf V600E | Btk | FGFR1 | Jnk3 | Kdr | Ret | Syk
